Blank lines part the entries; values can stand above or below the molecule they belong to. Active and inactive are the calls of the source. The calls are words filed in the database; no cut-off is given here.
Legend:
[1] = Antiproliferative activity against human MCF7 cells assessed as reduction in cell viability after 48 hrs by MTT assay; type: functional, cell-based; settings: MCF7, 48 h
[2] = Antiproliferative activity against human PANC1 cells assessed as reduction in cell viability after 48 hrs by MTT assay; type: functional, cell-based; settings: PANC-1, 48 h
[3] = Permeability of the compound at pH 7.4 by PAMPA-based pION assay; type: ADME; settings: read-out: permeability
[4] = Inhibition of His-tagged full length Hsp90/GST-tagged Cdc37 middle domain (unknown origin) interaction after 1 hr by TR-FRET assay; parameters: species or system Homo sapiens
[5] = Antiproliferative activity against human A549 cells assessed as reduction in cell viability after 48 hrs by MTT assay; type: functional, cell-based; settings: A549, 48 h
Homo sapiens = organism: Homo sapiens; experiment: Inhibition of His-tagged full length Hsp90/GST-tagged Cdc37 middle domain (unknown origin) interaction at 50 uM after 1 hr by TR-FRET assay relative to control
[6] = Cell cycle arrest in human PANC1 cells assessed as accumulation at G0/G1 phase at 0.5 uM after 24 hrs by propidium iodide staining-based FACS analysis (reference value: 36.48 %); type: functional; settings: PANC-1
PANC-1 [7] = experiment: Induction of apoptosis in human PANC1 cells assessed as necrotic cells at 1 uM after 24 hrs by Annexin V-FITC/propidium iodide-based FACS analysis (reference value: 0.75 %); type: functional
[8] = Cell cycle arrest in human PANC1 cells assessed as accumulation at S phase at 0.5 uM after 24 hrs by propidium iodide staining-based FACS analysis (reference value: 29.96 %); type: functional; settings: PANC-1
PANC-1 [9] = experiment: Induction of apoptosis in human PANC1 cells assessed as viable cells at 1 uM after 24 hrs by Annexin V-FITC/propidium iodide-based FACS analysis (reference value: 94.63 %); type: functional; settings: PANC-1, 24 h, read-out: Activity
PANC-1 [10] = experiment: Induction of apoptosis in human PANC1 cells assessed as late apoptotic cells at 1 uM after 24 hrs by Annexin V-FITC/propidium iodide-based FACS analysis (reference value: 0.30 %); type: functional
PANC-1 [11] = experiment: Inhibition of Hsp90/Cdc37 interaction in human PANC1 cells assessed as induction of Hsp70 at 0.1 to 5 uM after 24 hrs by Western blot analysis; type: cell-based
[12] = Cell cycle arrest in human PANC1 cells assessed as accumulation at G0/G1 phase at 1 uM after 24 hrs by propidium iodide staining-based FACS analysis (reference value: 36.48 %); type: functional; settings: PANC-1
PANC-1 [13] = experiment: Induction of apoptosis in human PANC1 cells assessed as late apoptotic cells at 0.5 uM after 24 hrs by Annexin V-FITC/propidium iodide-based FACS analysis (reference value: 0.30 %); type: functional
PANC-1 [14] = experiment: Inhibition of Hsp90/Cdc37 interaction in human PANC1 cells assessed as downregulation of Cdk4 after 24 hrs by Western blot analysis; type: cell-based
[15] = Cell cycle arrest in human PANC1 cells assessed as accumulation at G2/M phase at 1 uM after 24 hrs by propidium iodide staining-based FACS analysis (reference value: 33.56 %); type: functional; settings: PANC-1
[16] = Cell cycle arrest in human PANC1 cells assessed as accumulation at G2/M phase at 0.5 uM after 24 hrs by propidium iodide staining-based FACS analysis (reference value: 33.56 %); type: functional; settings: PANC-1
PANC-1 [17] = experiment: Induction of apoptosis in human PANC1 cells after 24 hrs by Annexin V-FITC/propidium iodide-based FACS analysis; type: functional, cell-based
PANC-1 [18] = experiment: Inhibition of Hsp90/Cdc37 interaction in human PANC1 cells assessed as downregulation of Akt after 24 hrs by Western blot analysis; type: cell-based
PANC-1 [19] = experiment: Induction of apoptosis in human PANC1 cells assessed as necrotic cells at 0.5 uM after 24 hrs by Annexin V-FITC/propidium iodide-based FACS analysis (reference value: 0.75 %); type: functional
PANC-1 [20] = experiment: Induction of apoptosis in human PANC1 cells assessed as viable cells at 0.5 uM after 24 hrs by Annexin V-FITC/propidium iodide-based FACS analysis (reference value: 94.63 %); type: functional; settings: PANC-1, 24 h, read-out: Activity
[21] = Antiproliferative activity against paclitaxel-resistant human A549 cells assessed as reduction in cell viability after 48 hrs by MTT assay; type: functional, cell-based; settings: A549, 48 h
PANC-1 [22] = experiment: Induction of apoptosis in human PANC1 cells assessed as early apoptotic cells at 1 uM after 24 hrs by Annexin V-FITC/propidium iodide-based FACS analysis (reference value: 4.31 %); type: functional
[23] = Cell cycle arrest in human PANC1 cells assessed as accumulation at S phase at 1 uM after 24 hrs by propidium iodide staining-based FACS analysis (reference value: 29.96 %); type: functional; settings: PANC-1
PANC-1 [24] = experiment: Induction of apoptosis in human PANC1 cells assessed as early apoptotic cells at 0.5 uM after 24 hrs by Annexin V-FITC/propidium iodide-based FACS analysis (reference value: 4.31 %); type: functional

SMILES: CCOC(=O)[C@]1(C)CC[C@]2(C)CC[C@]3(C)C4=CC=C5C(=CC(=O)C(O)=C5C)[C@]4(C)CC[C@@]3(C)[C@@H]2C1
IC50 [1]: 1760 nM
IC50 [2]: 1560 nM
IC50 [5]: 1970 nM
inhibition (Homo sapiens): 54.8%

SMILES: CC1=C(O)C(=O)C=C2C1=CC=C1[C@@]2(C)CC[C@@]2(C)[C@@H]3C[C@](C)(C(=O)NCCN4CCN(C)CC4)CC[C@]3(C)CC[C@]12C
Activity [6]: 46.6%
Activity (PANC-1 [7]): 2.31%
Activity [8]: 21.4%
viability at 1 µM (PANC-1 [9]): 64.1%
Activity (PANC-1 [10]): 2.61%
inhibition (PANC-1 [11]): Active
Activity [12]: 55.4%
IC50 [1]: 1020 nM
IC50 [2]: 1120 nM
Activity (PANC-1 [13]): 0.4%
inhibition (PANC-1 [14]): Dose-dependent effect
Activity [15]: 25.9%
Activity [16]: 32%
Activity (PANC-1 [17]): Dose-dependent effect
Papp [3]: 29 ×10⁻⁶ cm/s
inhibition (PANC-1 [18]): Dose-dependent effect
Activity (PANC-1 [19]): 1.27%
viability at 0.5 µM (PANC-1 [20]): 90%
IC50 [21]: 450 nM
IC50 [4]: 4710 nM
Activity (PANC-1 [22]): 31.01%
IC50 [5]: 1010 nM
Activity [23]: 18.7%
Activity (PANC-1 [24]): 8.37%
inhibition (Homo sapiens): 96.9%

SMILES: COC(=O)[C@]1(C)CC[C@]2(C)CC[C@]3(C)C4=CC=C5C(=CC(=O)C(O)=C5C)[C@]4(C)CC[C@@]3(C)[C@@H]2C1 [PRISTIMERIN]
IC50 [1]: 1570 nM
IC50 [2]: 1490 nM
IC50 [5]: 1400 nM
inhibition (Homo sapiens): 60.5%

SMILES: CC1=C(O)C(=O)C=C2C1=CC=C1[C@@]2(C)CC[C@@]2(C)[C@@H]3C[C@](C)(C(=O)N4CCCC(C)C4)CC[C@]3(C)CC[C@]12C (stereo partly drawn)
IC50 [1]: 2030 nM
IC50 [2]: 1840 nM
IC50 [5]: 2430 nM
inhibition (Homo sapiens): 47.9%

SMILES: CC1=C(O)C(=O)C=C2C1=CC=C1[C@@]2(C)CC[C@@]2(C)[C@@H]3C[C@](C)(C(=O)N4CCCCC4)CC[C@]3(C)CC[C@]12C
IC50 [1]: 1890 nM
IC50 [2]: 2290 nM
IC50 [5]: 1920 nM
inhibition (Homo sapiens): 54.8%

Now from value to molecule, other results behind:

Papp [3]: 53.1 ×10⁻⁶ cm/s
IC50 [4]: 5740 nM
inhibition (Homo sapiens): 94.5%
SMILES: CCN(CC)CCNC(=O)[C@]1(C)CC[C@]2(C)CC[C@]3(C)C4=CC=C5C(=CC(=O)C(O)=C5C)[C@]4(C)CC[C@@]3(C)[C@@H]2C1
IC50 [1]: 1030 nM
IC50 [2]: 1270 nM
IC50 [5]: 710 nM

inhibition (Homo sapiens): 28.4%
SMILES: CC1=C(O)C(=O)C=C2C1=CC=C1[C@@]2(C)CC[C@@]2(C)[C@@H]3C[C@](C)(C(=O)OCC(C)C)CC[C@]3(C)CC[C@]12C
IC50 [1]: 2060 nM
IC50 [2]: 1900 nM
IC50 [5]: 3420 nM

inhibition (Homo sapiens): 69.2%
SMILES: CNC(=O)[C@]1(C)CC[C@]2(C)CC[C@]3(C)C4=CC=C5C(=CC(=O)C(O)=C5C)[C@]4(C)CC[C@@]3(C)[C@@H]2C1
IC50 [1]: 1200 nM
IC50 [2]: 1420 nM
IC50 [5]: 1930 nM

inhibition (Homo sapiens): 60%
SMILES: CC1=C(O)C(=O)C=C2C1=CC=C1[C@@]2(C)CC[C@@]2(C)[C@@H]3C[C@](C)(C(=O)NC(C)C)CC[C@]3(C)CC[C@]12C
IC50 [1]: 2550 nM
IC50 [2]: 2040 nM
IC50 [5]: 2640 nM

inhibition (Homo sapiens): 60.6%
SMILES: CC1=C(O)C(=O)C=C2C1=CC=C1[C@@]2(C)CC[C@@]2(C)[C@@H]3C[C@](C)(C(=O)N(C)C)CC[C@]3(C)CC[C@]12C
IC50 [1]: 1430 nM
IC50 [2]: 2660 nM
IC50 [5]: 1810 nM

inhibition (Homo sapiens): 60%
SMILES: CCCNC(=O)[C@]1(C)CC[C@]2(C)CC[C@]3(C)C4=CC=C5C(=CC(=O)C(O)=C5C)[C@]4(C)CC[C@@]3(C)[C@@H]2C1
IC50 [1]: 2040 nM
IC50 [2]: 2370 nM
IC50 [5]: 2490 nM

Papp [3]: 45 ×10⁻⁶ cm/s
IC50 [4]: 5630 nM
inhibition (Homo sapiens): 93.6%
SMILES: CC1=C(O)C(=O)C=C2C1=CC=C1[C@@]2(C)CC[C@@]2(C)[C@@H]3C[C@](C)(C(=O)NCCN(C)C)CC[C@]3(C)CC[C@]12C
IC50 [1]: 640 nM
IC50 [2]: 1230 nM
IC50 [5]: 1080 nM
